US9643953B2, “Substituted benzylpyrazoles” (Bayer Intellectual Property GmbH, priority 2011, dated 2017)
Read-outs that look alike come from different tables or passages of the source.

Legend:
HeLa cell line = test: Proliferation assay (HeLa cell line);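 also: crystal violet staining of cell number, absorbance read at 595 nm, compounds tested at 0.001–10 µM, zero-point plate taken as 0% and untreated cells as 100%, four-parameter fit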
Protocol: (§1) Cultivated tumor cells (cells were ordered from ATCC, except HeLa-MaTu and HeLa-MaTu-ADR, which were ordered from EPO-GmbH, Berlin) were plated at a density of 1000 to 5000 cells/well, depending on the growth rate of the respective cell line, in a 96-well multititer plate in 200 μL of their respective growth medium supplemented 10% fetal calf serum. After 24 hours, the cells of one plate (zero-point plate) were stained with crystal violet (see below), while the medium of the other plates was replaced by fresh culture medium (200 μl), to which the test substances were added in various concentrations (0 μM, as well as in the range of 0.001-10 μM; the final concentration of the solvent dimethyl sulfoxide was 0.5%). The cells were incubated for 4 days in the presence of test substances. Cell proliferation was determined by staining the cells with crystal violet: the cells were fixed by adding 20 μl/measuring point of an 11% glutaric aldehyde solution for 15 minutes at room temperature. After three washing cycles of the fixed cells with water, the plates were dried at room temperature. The cells were stained by adding 100 μl/measuring point of a 0.1% crystal violet solution (pH 3.0). After three washing cycles of the stained cells with water, the plates were dried at room temperature. The dye was dissolved by adding 100 μl/measuring point of a 10% acetic acid solution. Absorption was determined by photometry at a wavelength of 595 nm. The change of cell number, in percent, was calculated by normalization of the measured values to the absorption values of the zero-point plate (=0%) and the absorption of the untreated (0 μm) cells (=100%). The IC50 values were determined by means of a 4 parameter fit.

[1] = molecular target: T1, catalytic domain of human Bub1 (amino acids 704-1085) (Homo sapiens, UniProt O43683); test: Bub1 kinase assay (TR-FRET); type: biochemical; conditions: ATP 10 μM, peptide substrate 1 μM, 60 min at 22° C.
T1 construct: catalytic domain of human Bub1 (amino acids 704-1085); His6 (N); made in house; host or cells: Hi5 insect cells
Protocol: To this end, 100-fold concentrated compound solutions (in DMSO) were previously prepared by serial dilution (1:3.4) of 2 mM stocks in a clear low volume 384-well source microtiter plate (Greiner Bio-One, Frickenhausen, Germany), from which 50 nl of compounds were transferred into a black low volume test microtiter plate from the same supplier. […] The resulting mixture (5 μl final volume) was incubated at 22° C. during 60 min., and the reaction was stopped by the addition of 5 μl of an aqueous EDTA-solution (50 mM EDTA, in 100 mM HEPES pH 7.5 and 0.2% (w/v) bovine serum albumin) which also contained the TR-FRET detection reagents (0.2 μM streptavidin-XL665 [Cisbio Bioassays, Codolet, France] and 1 nM anti-phosho-Serine antibody [Merck Millipore, cat. #35-001] and 0.4 nM LANCE EU-W1024 labeled anti-mouse IgG antibody [Perkin-Elmer, product no. AD0077, alternatively a Terbium-cryptate-labeled anti-mouse IgG antibody from Cisbio Bioassays can be used]). The stopped reaction mixture was further incubated 1 h at 22° C. in order to allow the formation of complexes between peptides and detection reagents. Subsequently, the amount of product was evaluated by measurement of the resonance energy transfer from the Eu-chelate-antibody complex recognizing the Phosphoserine residue to the streptavidin-XL665 bound to the biotin moiety of the peptide. […] IC50 values were calculated by fitting the normalized inhibition data to a 4-parameter logistic equation (Minimum, Maximum, IC50, Hill; Y=Max+(Min−Max)/(1+(X/IC50)Hill)).

HeLa-MaTu-ADR cell line = test: Proliferation assay (HeLa-MaTu-ADR cell line); conditions: 96 h, read-out: Biological Assay 2: Proliferation assay (HeLa-MaTu-ADR cell line) median IC50
Protocol: as §1

DU145 cell line = test: Proliferation assay (DU145 cell line); conditions: Homo sapiens, DU-145, 96 h, read-out: Biological Assay 2: Proliferation assay (DU145 cell line) median IC50
Protocol: as §1

Caco2 cell line = test: Proliferation assay (Caco2 cell line); conditions: Homo sapiens, Caco-2, 96 h, read-out: Biological Assay 2: Proliferation assay (Caco2 cell line) median IC50
Protocol: as §1

B16F10 cell line = test: Proliferation assay (B16F10 cell line); conditions: Mus musculus, B16-F10, 96 h, read-out: Biological Assay 2: Proliferation assay (B16F10 cell line) median IC50
Protocol: as §1

H460 cell line = test: Proliferation assay (H460 cell line); conditions: Homo sapiens, NCI-H460, 96 h, read-out: Biological Assay 2: Proliferation assay (H460 cell line) median IC50
Protocol: as §1

[2] = Homo sapiens, HeLa, 96 h, read-out: Biological Assay 2: Proliferation assay (HeLa cell line) median IC50, HeLa cells, 4 days incubation, crystal violet staining
[3] = TR-FRET, read-out: Biological Assay 1: Bub1 kinase assay median IC50
[4] = Homo sapiens, HeLa, 96 h, read-out: Biological Assay 2: Proliferation assay (HeLa cell line) median IC50
[5] = Biological Assay 1: Bub1 kinase assay median IC50, TR-FRET

T1 sequence (O43683 704-1085): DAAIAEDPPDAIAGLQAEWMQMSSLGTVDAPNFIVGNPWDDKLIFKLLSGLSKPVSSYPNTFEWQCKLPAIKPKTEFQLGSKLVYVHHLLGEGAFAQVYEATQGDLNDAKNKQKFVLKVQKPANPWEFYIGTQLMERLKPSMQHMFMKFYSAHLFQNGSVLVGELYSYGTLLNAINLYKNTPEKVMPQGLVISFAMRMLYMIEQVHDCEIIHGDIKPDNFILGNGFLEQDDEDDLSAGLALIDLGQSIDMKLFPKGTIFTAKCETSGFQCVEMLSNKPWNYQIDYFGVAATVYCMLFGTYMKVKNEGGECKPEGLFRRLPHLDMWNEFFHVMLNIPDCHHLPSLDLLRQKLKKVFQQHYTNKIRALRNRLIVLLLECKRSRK

Row | Compound | IC50 [1, 3] | IC50 (HeLa cell line; [4]) | IC50 [1, 5] | other results
1 | CCOc1cc(F)c(Cn2nc(-c3ncc(OCCC[S+](C)[O-])c(Nc4ccncc4)n3)c(C)c2C2CC2)c(F)c1 (stereo not drawn) [Example 2-8-4, 2-[5-cyclopropyl-1-(4-ethoxy-2,6-difluorobenzyl)-4-methyl-1H-pyrazol-3-yl]-5-[3-(methylsulfinyl)propoxy]-N-(pyridin-4-yl)pyrimidin-4-amine] | 0.0079 µM | – | – | IC50 (HeLa cell line; [2]): 4.31 µM
2 | CCOc1cc(F)c(Cn2nc(-c3ncc(OCC4CCC(=O)N4)c(Nc4ccncc4)n3)c(C)c2C2CC2)c(F)c1 (single isomer, unassigned; enantiomer 2) [Example 2-3-7, 5-[({2-[5-cyclopropyl-1-(4-ethoxy-2,6-difluorobenzyl)-4-methyl-1H-pyrazol-3-yl]-4-(pyridin-4-ylamino)pyrimidin-5-yl}oxy)methyl]pyrrolidin-2-one enantiomer 2] | 0.0121 µM | – | – | IC50 (HeLa cell line; read-out: Biological Assay 2: Proliferation assay (HeLa cell line) median IC50, HeLa cells, 4 days incubation, crystal violet staining): 2.89 µM
3 | CCOc1cc(-c2ncc(OC)c(Nc3ccncc3)n2)nn1Cc1ccccc1F [Example 2-1-4, 2-[5-ethoxy-1-(2-fluorobenzyl)-1H-pyrazol-3-yl]-5-methoxy-N-(pyridin-4-yl)pyrimidin-4-amine] | 0.638 µM | > 10 µM | – | –
4 | CCOc1cc(F)c(Cn2nc(-c3ncc(OCC4(CO)COC4)c(Nc4ccncc4)n3)c(C)c2C2CC2)c(Sc2ccccc2)c1 [Example 2-3-9, [3-({[2-{5-cyclopropyl-1-[4-ethoxy-2-fluoro-6-(phenylsulfanyl)benzyl]-4-methyl-1H-pyrazol-3-yl}-4-(pyridin-4-ylamino)pyrimidin-5-yl]oxy}methyl)oxetan-3-yl]-methanol] | 0.249 µM | – | – | IC50 (HeLa cell line; [2]): 6.46 µM
5 | CCOc1cc(F)c(Cn2nc(-c3ncc(OCC4CCC(=O)N4)c(Nc4ccncc4)n3)c(C)c2C2CC2)c(F)c1 (single isomer, unassigned; enantiomer 1) [Example 2-3-6, 5-[({2-[5-cyclopropyl-1-(4-ethoxy-2,6-difluorobenzyl)-4-methyl-1H-pyrazol-3-yl]-4-(pyridin-4-ylamino)pyrimidin-5-yl}oxy)methyl]pyrrolidin-2-one enantiomer 1] | 0.00814 µM | – | – | IC50 (HeLa cell line; [2]): 2.97 µM
6 | CCOc1cc(F)c(Cn2nc(-c3nccc(Nc4ccncc4C#N)n3)c(C)c2C2CC2)c(F)c1 [Example 2-6-6, 4-({2-[5-cyclopropyl-1-(4-ethoxy-2,6-difluorobenzyl)-4-methyl-1H-pyrazol-3-yl]pyrimidin-4-yl}amino)nicotinonitrile] | – | > 10 µM | 0.00877 µM | –
7 | COc1cnc(-c2nn(Cc3c(Cl)cccc3Cl)c(C3CC3)c2C)nc1Nc1ccncc1 [Example 2-1-9, 2-[5-cyclopropyl-1-(2,6-dichlorobenzyl)-4-methyl-1H-pyrazol-3-yl]-5-methoxy-N-(pyridin-4-yl)pyrimidin-4-amine] | 0.00576 µM | > 10 µM | – | –
8 | COc1cnc(-c2cc(N(C)C)n(Cc3ccccc3F)n2)nc1Nc1ccncc1 [Example 2-1-2, 2-[5-(dimethylamino)-1-(2-fluorobenzyl)-1H-pyrazol-3-yl]-5-methoxy-N-(pyridin-4-yl)pyrimidin-4-amine] | 1.15 µM | > 10 µM | – | –
9 | C=Cc1cc(-c2ncc(OC)c(Nc3ccncc3)n2)nn1Cc1ccccc1 [Example 2-1-6, 2-(1-benzyl-5-ethenyl-1H-pyrazol-3-yl)-5-methoxy-N-(pyridin-4-yl)pyrimidin-4-amine] | 0.517 µM | > 10 µM | – | –

Continued by falling IC50 (HeLa cell line; [4]), values first:

Row | IC50 [1, 3] | IC50 (HeLa cell line; [4]) | IC50 [1, 5] | Compound | other results
10 | – | 7.38 µM | 0.00614 µM | CCOc1cc(F)c(Cn2nc(-c3ncc(OC)c(Nc4ccncc4)n3)c(C)c2OC)c(F)c1 [Example 2-1-1, 2-[1-(4-ethoxy-2,6-difluorobenzyl)-5-methoxy-4-methyl-1H-pyrazol-3-yl]-5-methoxy-N-(pyridin-4-yl)pyrimidin-4-amine] | –
11 | – | 5.57 µM | 0.0108 µM | CCOc1cc(F)c(Cn2nc(-c3ncc(OCCSC)c(Nc4ccncc4)n3)c(C)c2C2CC2)c(F)c1 [Example 2-3-4, 2-[5-cyclopropyl-1-(4-ethoxy-2,6-difluorobenzyl)-4-methyl-1H-pyrazol-3-yl]-5-[2-(methylsulfanyl)ethoxy]-N-(pyridin-4-yl)pyrimidin-4-amine] | –
12 | 0.0613 µM | 5.28 µM | – | COc1cnc(-c2nn(Cc3c(F)c(F)c(OCC(F)(F)F)c(F)c3F)c(C3CC3)c2C)nc1Nc1ccncc1 [Example 2-10-2, 2-{5-cyclopropyl-4-methyl-1-[2,3,5,6-tetrafluoro-4-(2,2,2-trifluoroethoxy)benzyl]-1H-pyrazol-3-yl}-5-methoxy-N-(pyridin-4-yl)pyrimidin-4-amine] | –
13 | – | 4.46 µM | 0.00932 µM | CCOc1cc(F)c(Cn2nc(-c3nccc(Nc4ccncc4C(N)=O)n3)c(C)c2C2CC2)c(F)c1 [Example 2-4-3, 4-({2-[5-cyclopropyl-1-(4-ethoxy-2,6-difluorobenzyl)-4-methyl-1H-pyrazol-3-yl]pyrimidin-4-yl}amino)nicotinamide] | –
14 | 0.00603 µM | 4.38 µM | – | CCOc1cc(F)c(Cn2nc(-c3ncc(OC)c(Nc4ccncc4)n3)c(C)c2C2CC2)c(F)c1 [Example 2-1-12, 2-[5-cyclopropyl-1-(4-ethoxy-2,6-difluorobenzyl)-4-methyl-1H-pyrazol-3-yl]-5-methoxy-N-(pyridin-4-yl)pyrimidin-4-amine] | IC50 (HeLa-MaTu-ADR cell line): 3.08 µM; IC50 (DU145 cell line): 3.09 µM; IC50 (Caco2 cell line): 2.13 µM; IC50 (B16F10 cell line): 2.24 µM; IC50 (H460 cell line): 2.62 µM
15 | 0.0365 µM | 3.49 µM | – | COc1cnc(-c2nn(Cc3ccccc3F)c(C3CC3)c2C)nc1Nc1ccncc1 [Example 2-1-10, 2-[5-cyclopropyl-1-(2-fluorobenzyl)-4-methyl-1H-pyrazol-3-yl]-5-methoxy-N-(pyridin-4-yl)pyrimidin-4-amine] | –
16 | – | 3.45 µM | 0.00745 µM | CCOc1cc(F)c(Cn2nc(-c3ncc(OCCN(C)C)c(Nc4ccncc4)n3)c(C)c2C2CC2)c(F)c1 [Example 2-3-1, 2-[5-cyclopropyl-1-(4-ethoxy-2,6-difluorobenzyl)-4-methyl-1H-pyrazol-3-yl]-5-[2-(dimethylamino)ethoxy]-N-(pyridin-4-yl)pyrimidin-4-amine] | IC50 (HeLa-MaTu-ADR cell line): 1.26 µM; IC50 (DU145 cell line): 3.2 µM; IC50 (Caco2 cell line): 1.94 µM; IC50 (B16F10 cell line): 0.422 µM; IC50 (H460 cell line): 1.46 µM
17 | – | 3.2 µM | 0.00555 µM | CCOc1cc(F)c(Cn2nc(-c3ncc(OCS(N)(=O)=O)c(Nc4ccncc4)n3)c(C)c2C2CC2)c(F)c1 [Example 2-3-5, 1-({2-[5-cyclopropyl-1-(4-ethoxy-2,6-difluorobenzyl)-4-methyl-1H-pyrazol-3-yl]-4-(pyridin-4-ylamino)pyrimidin-5-yl}oxy)methanesulfonamide] | –
18 | – | 1.13 µM | 0.00949 µM | CCOc1cc(F)c(Cn2nc(-c3ncc(OCCCS(C)(=O)=O)c(Nc4ccncc4)n3)c(C)c2C2CC2)c(F)c1 [Example 2-3-10, 2-[5-cyclopropyl-1-(4-ethoxy-2,6-difluorobenzyl)-4-methyl-1H-pyrazol-3-yl]-5-[3-(methylsulfonyl)propoxy]-N-(pyridin-4-yl)pyrimidin-4-amine] | IC50 (HeLa-MaTu-ADR cell line): 0.755 µM; IC50 (DU145 cell line): 1.61 µM; IC50 (Caco2 cell line): 1.41 µM; IC50 (B16F10 cell line): 1.18 µM; IC50 (H460 cell line): 1.55 µM
